Each structure is given as a SMILES string. Activity calls are given as the source filed them. Bounds are passed on as bounds.

One experiment deals with Large T antigen (Simian virus 40, UniProt P03070). In kind it is functional, Betapolyomavirus macacae.
The target in experiment [1] is 26S proteasome non-ATPase regulatory subunit 14 (Homo sapiens, UniProt O00487). The experiment can be described thus: inhibition of proteasome subunit RPN11 – biochemical, fluorescence polarization, uHTS hits, confirmation (AID 602368). In kind it is functional.
A further experiment deals with Prothrombin (Bos taurus, UniProt P00735). In words: thrombin protease inhibitors – biochemical, fluorescence polarization, uHTS hits, dose response (AID 602369). In kind it is functional.
Experiment [2] in a line: protection from phage-mediated lysis, alamar blue read-out – E. coli UTI89, K1F phage, bacterial capsule biogenesis inhibitors (AID 488966). In kind it is functional.
For experiment [3], the target named is Induced myeloid leukemia cell differentiation protein Mcl-1 (Homo sapiens, UniProt Q07820). It is filed as functional.
The target of experiment [4] is 72 kDa type IV collagenase (Homo sapiens, UniProt P08253). In words: Dose Response validation of uHTS RPN11 inhibitor hits using a MMP-2 Fluorescence assay. In kind it is functional.
A further experiment deals with Genome polyprotein (Hepatitis C virus, UniProt Q2Q167). In words: disruption of hepatitis C core self-association – biochemical, TR-FRET, dose response (AID 2159).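 Also: blocks dimerization of HCV core protein measured by TR-FRET between tagged core106 pairs.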 On the set-up: species or system Hepacivirus hominis.
Experiment [5] concerns the target T1, Orexin/Hypocretin receptor type 1 (Homo sapiens, UniProt O43613). In words: Homogeneous Time Resolved Fluorescence (HTRF)-based cell-based high throughput dose response assay for antagonists of the orexin 1 receptor (OX1R; HCRTR1). [Related pubchem assays (depositor defined):AID434989, AID435008, AID463079, AID485270, AID492963, AID492964, AID492965, AID493232, AID504717, AID504718]. In kind it is functional.

The target of experiment [6] is T2, Orexin receptor type 2 (Homo sapiens, UniProt O43614). In words: Counterscreen assay for antagonists of the orexin 1 receptor (OX1R; HCRTR1): Homogeneous Time Resolved Fluorescence (HTRF)-based cell-based dose response assay for antagonists of the orexin 2 receptor (OX2R; HCRTR2), run by assay provider. It is filed as functional.
Experiment [7] in a line: Counterscreen for antagonists of the orexin 1 receptor (OX1R; HCRTR1): Fluorescence-based cell-based high throughput dose response assay to identify antagonists of the parental CHO cell line. [Related pubchem assays (depositor defined):AID434989, AID435008, AID463079, AID485270, AID492963, AID492964, AID492965, AID493232, AID504699, AID504701]. It is filed as functional.

In a further experiment the test system is CHO-K1. In words: Counterscreen for antagonists of the orexin 1 receptor (OX1R; HCRTR1): Homogeneous time resolved fluorescence (HTRF)-based cell-based dose response assay to identify antagonists of the parental CHO-K1 cell line. [Related pubchem assays (depositor defined):AID434989, AID435008, AID463079, AID485270, AID492963, AID492964, AID492965, AID493232, AID504699, AID504701]. In kind it is functional. To be noted: Cricetulus griseus.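 Also: potency for inhibition of ATP-stimulated IP1 production as antagonists.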

The target of experiment [8] is T2, Orexin receptor type 2. The experiment can be described thus: Counterscreen assay for antagonists of the orexin 1 receptor (OX1R; HCRTR1): Fluorescence-based cell-based dose response assay for antagonists of the orexin 2 receptor (OX2R; HCRTR2), run by assay provider. In kind it is functional.
Experiment [9] concerns the target T1, Orexin/Hypocretin receptor type 1. In words: Fluorescence-based cell-based high throughput dose response assay for antagonists of the orexin 1 receptor (OX1R; HCRTR1). [Related pubchem assays (depositor defined):AID434989, AID435008, AID463079, AID485270, AID492963, AID492964, AID492965, AID493232, AID504717, AID504718]. It is filed as functional.
A short description of experiment [10]: Luminescence Cell-Based Dose Retest to Confirm Inhibitors of Cancer Stem Cells. [Related pubchem assays (depositor defined):AID2717, AID2721]. In kind it is functional. The note with it: Homo sapiens.
Experiment [11] deals with Neuropeptides B/W receptor type 1 (Homo sapiens, UniProt P48145). In words: human NPBW1 receptor blockade, IC50 – cell-based, fluorescence, dose response, set 5, late-stage follow-up (AID 588566). In kind it is functional.
For experiment [12], the target named is Melanin-concentrating hormone receptor 1 (Homo sapiens, UniProt Q99705). The experiment can be described thus: Late-stage fluorescence-based counterscreen for antagonists of the G-protein coupled receptor 7 (GPR7): cell-based dose response assay to identify antagonists of the melanin-concentrating hormone receptor 1 (MCHR1) Set 5. It is filed as functional.

Experiment [13] addresses Mitogen-activated protein kinase 13 (Homo sapiens, UniProt O15264). It is filed as functional.
Experiment [14] concerns the target Rho-associated protein kinase 2 (Homo sapiens, UniProt O75116). It is filed as functional.
The test system of experiment [15] is BJ. The experiment can be described thus: cells. It is filed as functional, cell-based. To be noted: Homo sapiens.
The next experiment has as its system INS1. The experiment can be described thus: INS-1E survival protection against cytokine death – cell-based, luminescence, retest, dose response (AID 449756).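 Also: cell death triggered by IL-1 beta plus TNF-alpha plus IFN-gamma mixture; protective hits raise ATP signal compared with cytokine alone wells.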 The note with it: Rattus norvegicus. It is filed as functional.
The nature of experiment [16]: Luminescence-based dose response cell-based high throughput screening assay for cytotoxic compounds using the IEC-6 intestinal epithelial cell line. [Related pubchem assays: 1858 (Summary AID.), 1825 (Counterscreen.), 1907 (Confirmation screen.)]. It is filed as functional.
The nature of experiment [17]: non-specific 3'UTR reporter inhibition in Clone20-Shn3RL – cell-based, Renilla luciferase, cherry-picked, counter-screen for Shn3 inhibitor project, dose response (AID 624133). It is filed as functional.
For experiment [18], the system named is BJ. In words: BJ-TERT-LT-ST fibroblast viability loss – cell-based, RAS-independent, luminescence, dose response (AID 1935).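 Also: BJ fibroblasts immortalized with TERT plus LT and ST oncogenes.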 In kind it is functional. To be noted: Homo sapiens.
A short description of experiment [19]: reduction of Shn3 3'UTR-driven luciferase in osteoblasts – cell-based, Clone20 osteoblasts, firefly luciferase, cherry-picked, dose response (AID 624132).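 Also: firefly luciferase luminescence from reporter carrying the Shn3 3'UTR in osteoblasts.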 In kind it is functional.
The target of experiment [20] is T3, High affinity choline transporter 1 (Homo sapiens, UniProt Q9GZV3).
T3 sequence (Q9GZV3 whole entry): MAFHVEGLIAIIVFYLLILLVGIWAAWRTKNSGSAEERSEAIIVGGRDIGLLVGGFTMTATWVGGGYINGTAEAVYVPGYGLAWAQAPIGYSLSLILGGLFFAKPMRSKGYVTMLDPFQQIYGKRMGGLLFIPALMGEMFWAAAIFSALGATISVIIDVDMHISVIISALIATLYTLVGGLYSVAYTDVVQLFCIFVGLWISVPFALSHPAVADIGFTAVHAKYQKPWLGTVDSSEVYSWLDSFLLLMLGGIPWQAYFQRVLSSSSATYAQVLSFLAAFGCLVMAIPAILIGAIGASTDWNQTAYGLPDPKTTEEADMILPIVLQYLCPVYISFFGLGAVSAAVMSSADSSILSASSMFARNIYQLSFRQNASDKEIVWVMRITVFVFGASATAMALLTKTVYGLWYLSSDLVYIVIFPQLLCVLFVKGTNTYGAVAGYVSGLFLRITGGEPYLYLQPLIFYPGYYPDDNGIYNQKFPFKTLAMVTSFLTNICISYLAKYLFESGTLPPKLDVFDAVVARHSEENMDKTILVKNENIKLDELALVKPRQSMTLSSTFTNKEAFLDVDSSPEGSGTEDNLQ
In words: human choline transporter potentiators, potency – cell-based, 10-point CRC, membrane potential dye, dose response (AID 602376). It is filed as functional.

Experiment [21] is described as follows: Luminescence Cell-Based Dose Response HTS to Identify Inhibitors of 5'UTR Stem-Loop Driven Prion Protein mRNA Translation in H4 Neuroglioblastoma Cells. [Related pubchem assays: 1827 (Project Summary), 1813 (Primary HTS)]. It is filed as functional.
A short description of experiment [22]: general mammalian cell viability loss – activator set, cherry-pick, cytotoxicity control for miR-122 modulator project, dose response (AID 720690).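 Also: HEK293T human cells scored for general mammalian cytotoxicity.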 It is filed as functional, cell-based.
Experiment [23] can be described thus: loss of viability in HepG2 cells – cell-based, CellTiter-Glo, cherry-picked, cytotoxicity control for Shn3 inhibitor project, dose response (AID 624134). It is filed as functional.
Experiment [24] is described as follows: activation of miR-122 Renilla sensor silencing – cell-based, Huh7 psiCHECK-miR122, Renilla luciferase, cherry-picked, dose response (AID 651956).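 Also: huh7 hepatoma cells stably carrying a psiCHECK-2 miR-122 sensor plasmid; renilla luciferase signal reporting endogenous miR-122 activity after 48 h compound exposure.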 It is filed as functional.
A short description of experiment [25]: reduced cellular PGC1a acetyl-lysine signal – cell-based, cherry-picked samples, dose response (AID 720514).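 Also: potency may reflect raised or lowered acetylation signal.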 In kind it is functional.
Experiment [26] relates to BJ. The experiment can be described thus: growth inhibition of engineered Ras-driven BJ cells – cell-based, alamar blue fluorescence, cherrypicked samples, dose response (AID 2631).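 Also: confirmatory dose-response assay in RAS-dependent BJ fibroblasts engineered with TERT, LT and ST, with cytotoxicity read by fluorescence.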 In kind it is functional. The note with it: Homo sapiens.
The nature of experiment [27]: general mammalian cell viability loss – inhibitor set, cherry-pick, set 2, cytotoxicity control for miR-122 modulator project, dose response (AID 720697). It is filed as functional, cell-based.
Experiment [28] in a line: alpha-synuclein stem-loop luciferase translation blockers – H4 neuroglioma cells, luminescence, confirmation (AID 1988). In kind it is functional, cell-based.
Experiment [29] in a line: DRD fibroblast viability loss – cell-based, non-viral oncogenic, luminescence, dose response (AID 1934). In kind it is functional. To be noted: Homo sapiens.
Experiment [30] is described as follows: luciferase reporter signal suppression in cells – H4 neuroglioma cells, luminescence, dose response (AID 1990). It is filed as functional, cell-based.
The test system of experiment [31] is BJ. The experiment can be described thus: BJ-TERT fibroblast viability loss – cell-based, RAS-independent, luminescence, dose response (AID 1933). In kind it is functional. To be noted: Homo sapiens.

T2 sequence (O43614 whole entry): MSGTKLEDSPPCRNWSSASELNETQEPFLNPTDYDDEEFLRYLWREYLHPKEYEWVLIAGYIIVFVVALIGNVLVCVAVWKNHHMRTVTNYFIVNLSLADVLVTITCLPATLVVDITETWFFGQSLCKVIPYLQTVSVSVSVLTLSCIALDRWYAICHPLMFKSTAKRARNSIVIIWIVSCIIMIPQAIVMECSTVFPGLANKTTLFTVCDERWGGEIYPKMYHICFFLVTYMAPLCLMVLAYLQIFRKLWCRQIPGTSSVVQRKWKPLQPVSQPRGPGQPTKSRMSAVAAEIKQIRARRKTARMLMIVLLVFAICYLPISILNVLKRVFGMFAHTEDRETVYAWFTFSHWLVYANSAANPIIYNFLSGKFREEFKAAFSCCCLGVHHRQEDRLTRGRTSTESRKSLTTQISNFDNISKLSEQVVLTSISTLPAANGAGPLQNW
T1 sequence (O43613 whole entry): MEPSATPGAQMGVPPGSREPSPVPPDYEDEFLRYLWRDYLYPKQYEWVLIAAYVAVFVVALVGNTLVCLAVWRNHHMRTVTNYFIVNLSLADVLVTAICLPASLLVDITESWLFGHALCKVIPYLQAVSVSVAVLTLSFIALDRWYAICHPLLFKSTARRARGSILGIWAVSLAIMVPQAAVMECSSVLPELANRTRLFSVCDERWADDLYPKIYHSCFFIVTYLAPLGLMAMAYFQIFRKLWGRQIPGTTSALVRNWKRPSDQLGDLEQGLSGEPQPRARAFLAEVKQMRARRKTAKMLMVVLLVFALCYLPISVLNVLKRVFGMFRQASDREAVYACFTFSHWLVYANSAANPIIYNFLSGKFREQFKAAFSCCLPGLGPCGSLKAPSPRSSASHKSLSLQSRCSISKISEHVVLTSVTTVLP
Chain of Rho-associated protein kinase 2 (O75116 whole entry): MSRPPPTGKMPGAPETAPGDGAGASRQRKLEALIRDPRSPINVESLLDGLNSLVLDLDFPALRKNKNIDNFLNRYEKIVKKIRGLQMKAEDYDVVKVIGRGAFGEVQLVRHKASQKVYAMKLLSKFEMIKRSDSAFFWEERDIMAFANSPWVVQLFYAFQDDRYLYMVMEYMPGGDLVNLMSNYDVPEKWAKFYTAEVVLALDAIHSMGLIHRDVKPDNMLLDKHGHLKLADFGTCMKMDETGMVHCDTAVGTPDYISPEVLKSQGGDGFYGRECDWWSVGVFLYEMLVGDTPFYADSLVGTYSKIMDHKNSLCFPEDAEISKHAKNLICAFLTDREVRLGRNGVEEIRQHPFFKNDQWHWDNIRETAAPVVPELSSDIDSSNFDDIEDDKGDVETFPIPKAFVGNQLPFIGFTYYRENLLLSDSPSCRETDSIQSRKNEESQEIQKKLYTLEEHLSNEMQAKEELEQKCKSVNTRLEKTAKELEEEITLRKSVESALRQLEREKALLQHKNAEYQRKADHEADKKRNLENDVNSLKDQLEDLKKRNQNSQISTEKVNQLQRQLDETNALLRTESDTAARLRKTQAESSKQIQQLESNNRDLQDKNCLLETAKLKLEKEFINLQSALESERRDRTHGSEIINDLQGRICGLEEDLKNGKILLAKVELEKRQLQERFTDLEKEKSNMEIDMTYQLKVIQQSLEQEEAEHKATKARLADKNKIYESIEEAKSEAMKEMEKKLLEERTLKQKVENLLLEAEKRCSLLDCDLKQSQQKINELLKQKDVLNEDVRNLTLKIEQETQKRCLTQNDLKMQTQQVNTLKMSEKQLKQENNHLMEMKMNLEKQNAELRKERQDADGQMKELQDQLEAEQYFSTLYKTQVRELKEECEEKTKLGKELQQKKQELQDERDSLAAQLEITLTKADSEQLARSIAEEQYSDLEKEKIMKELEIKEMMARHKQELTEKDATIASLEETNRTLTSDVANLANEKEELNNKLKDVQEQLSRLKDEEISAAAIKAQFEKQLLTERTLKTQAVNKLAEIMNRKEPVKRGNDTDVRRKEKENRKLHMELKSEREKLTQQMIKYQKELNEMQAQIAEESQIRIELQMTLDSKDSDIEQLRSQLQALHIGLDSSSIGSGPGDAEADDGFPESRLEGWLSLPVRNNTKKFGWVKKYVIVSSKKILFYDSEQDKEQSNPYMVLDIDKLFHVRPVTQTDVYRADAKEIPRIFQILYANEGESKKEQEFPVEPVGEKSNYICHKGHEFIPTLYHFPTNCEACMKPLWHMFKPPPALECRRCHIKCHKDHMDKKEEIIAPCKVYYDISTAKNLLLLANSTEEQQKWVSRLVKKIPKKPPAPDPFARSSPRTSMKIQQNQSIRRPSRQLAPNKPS
Chain of Melanin-concentrating hormone receptor 1 (Q99705 whole entry): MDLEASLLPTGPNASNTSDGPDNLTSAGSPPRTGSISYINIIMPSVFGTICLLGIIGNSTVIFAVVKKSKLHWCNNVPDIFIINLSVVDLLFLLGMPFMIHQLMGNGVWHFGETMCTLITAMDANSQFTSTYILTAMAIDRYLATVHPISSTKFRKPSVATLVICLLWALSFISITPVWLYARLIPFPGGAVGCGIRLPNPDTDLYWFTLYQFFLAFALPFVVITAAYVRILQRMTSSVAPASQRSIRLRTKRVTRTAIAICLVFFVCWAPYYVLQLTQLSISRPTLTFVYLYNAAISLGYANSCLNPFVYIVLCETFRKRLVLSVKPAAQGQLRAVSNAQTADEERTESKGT
Chain of Large T antigen (P03070 whole entry): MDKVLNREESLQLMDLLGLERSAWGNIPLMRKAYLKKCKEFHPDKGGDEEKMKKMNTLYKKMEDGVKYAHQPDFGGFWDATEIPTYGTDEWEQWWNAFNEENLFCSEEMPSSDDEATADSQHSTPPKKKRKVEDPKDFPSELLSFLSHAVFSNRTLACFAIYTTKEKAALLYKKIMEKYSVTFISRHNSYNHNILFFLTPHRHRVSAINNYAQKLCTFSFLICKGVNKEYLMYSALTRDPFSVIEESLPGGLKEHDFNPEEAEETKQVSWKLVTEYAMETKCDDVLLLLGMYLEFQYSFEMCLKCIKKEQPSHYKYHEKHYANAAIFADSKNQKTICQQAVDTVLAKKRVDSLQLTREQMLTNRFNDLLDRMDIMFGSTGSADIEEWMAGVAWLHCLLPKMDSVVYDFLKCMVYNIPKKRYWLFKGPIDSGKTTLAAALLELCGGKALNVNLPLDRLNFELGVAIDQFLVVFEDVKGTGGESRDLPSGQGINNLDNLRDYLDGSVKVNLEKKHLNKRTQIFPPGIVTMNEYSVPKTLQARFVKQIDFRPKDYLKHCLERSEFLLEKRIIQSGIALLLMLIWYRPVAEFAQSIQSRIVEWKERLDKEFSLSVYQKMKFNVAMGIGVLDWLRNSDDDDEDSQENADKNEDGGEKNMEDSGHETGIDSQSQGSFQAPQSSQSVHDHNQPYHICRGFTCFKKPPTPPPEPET
Chain of Mitogen-activated protein kinase 13 (O15264 whole entry): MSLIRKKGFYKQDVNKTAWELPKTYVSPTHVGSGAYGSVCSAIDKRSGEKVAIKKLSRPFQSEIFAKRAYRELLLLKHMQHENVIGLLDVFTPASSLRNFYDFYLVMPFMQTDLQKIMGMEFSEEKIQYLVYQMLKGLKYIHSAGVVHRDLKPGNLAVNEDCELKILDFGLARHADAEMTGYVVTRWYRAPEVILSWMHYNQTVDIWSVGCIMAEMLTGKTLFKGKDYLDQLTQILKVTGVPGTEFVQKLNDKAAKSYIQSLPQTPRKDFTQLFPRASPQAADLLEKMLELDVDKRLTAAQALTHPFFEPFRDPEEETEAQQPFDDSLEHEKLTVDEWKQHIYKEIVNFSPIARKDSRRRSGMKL
Chain of 72 kDa type IV collagenase (P08253 whole entry): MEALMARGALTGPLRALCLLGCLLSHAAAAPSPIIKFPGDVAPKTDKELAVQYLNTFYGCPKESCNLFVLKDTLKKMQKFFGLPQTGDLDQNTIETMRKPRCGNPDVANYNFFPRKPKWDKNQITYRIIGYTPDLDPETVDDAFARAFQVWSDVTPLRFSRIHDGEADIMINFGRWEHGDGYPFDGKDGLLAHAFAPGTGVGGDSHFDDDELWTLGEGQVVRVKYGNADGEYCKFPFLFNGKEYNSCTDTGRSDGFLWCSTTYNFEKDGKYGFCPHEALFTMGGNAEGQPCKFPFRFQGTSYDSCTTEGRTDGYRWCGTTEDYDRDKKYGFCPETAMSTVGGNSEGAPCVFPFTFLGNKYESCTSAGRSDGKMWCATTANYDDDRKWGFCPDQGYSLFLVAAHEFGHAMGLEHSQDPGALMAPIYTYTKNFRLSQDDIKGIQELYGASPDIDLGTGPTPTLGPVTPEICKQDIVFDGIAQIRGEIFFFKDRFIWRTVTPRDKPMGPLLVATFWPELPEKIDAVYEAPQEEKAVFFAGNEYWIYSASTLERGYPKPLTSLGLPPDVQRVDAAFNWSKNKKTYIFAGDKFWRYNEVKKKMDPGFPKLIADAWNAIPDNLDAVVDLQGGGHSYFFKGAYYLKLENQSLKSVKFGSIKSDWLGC
Chain of 26S proteasome non-ATPase regulatory subunit 14 (O00487 whole entry): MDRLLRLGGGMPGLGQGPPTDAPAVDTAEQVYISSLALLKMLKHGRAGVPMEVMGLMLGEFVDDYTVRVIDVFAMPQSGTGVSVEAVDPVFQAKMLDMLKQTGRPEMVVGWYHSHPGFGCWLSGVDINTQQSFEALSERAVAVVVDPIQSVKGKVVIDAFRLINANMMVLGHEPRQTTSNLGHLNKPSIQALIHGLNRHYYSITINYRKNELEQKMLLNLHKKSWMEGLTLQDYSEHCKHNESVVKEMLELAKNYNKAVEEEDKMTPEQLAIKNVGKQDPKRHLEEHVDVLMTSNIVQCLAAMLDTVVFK
Chain of Genome polyprotein (Q2Q167 whole entry): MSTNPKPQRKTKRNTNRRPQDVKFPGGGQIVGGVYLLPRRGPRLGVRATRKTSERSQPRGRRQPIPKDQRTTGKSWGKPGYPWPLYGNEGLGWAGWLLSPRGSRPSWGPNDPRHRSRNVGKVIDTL

As for `CS(=O)(=O)c1ccc2c(c1)SC1=NC(=O)/C(=C/c3ccco3)C(=N)N12`, the IC50 at Large T antigen is > 100 µM (active); in experiment [1], 14.4 µM (active); on Prothrombin, 21.6 µM (active); in [2] it was > 150 µM (active); in [3], 2.84 µM (active); in [4] it was 21.2 µM (active). For the same compound, at Genome polyprotein, the IC50 is recorded as > 49.8 µM (not active).
For `C=CCn1c2ccccc2c(=O)c2cc(C#Cc3cc(OC)cc(OC)c3)ccc21`, the IC50 was 1.19 µM (active) in experiment [5]; > 50 µM (inactive) on Orexin receptor type 2 [6]; > 49.8 µM (inactive) in experiment [7]; > 66.2 µM (inactive) in the experiment on CHO-K1; 11 µM (inactive) on Orexin receptor type 2 [8]; 7.69 µM (active) in experiment [9]. For the same compound, the half-maximal activity concentration (AC50) in experiment [10] is 1.94 µM (active).
With `O=c1c(Oc2ccc(C(F)(F)F)cc2)c(Cl)cnn1Cc1cccc2ccccc12`, the IC50 in [11] and in experiment [12] was > 20 µM (inactive) each time.
As for `O=C(NC(CO)Cc1ccccc1)c1ccc(-c2ccncc2)cc1` (stereo unspecified), the Ki in experiment [13] was > 7.94 µM (inactive); in experiment [14] it was 0.0398 µM (active).
With `Cc1ccccc1OCC(O)CNC1CCC(NCC(O)COc2ccccc2C)CC1` (stereo unspecified), the EC50 in the experiment with BJ [15] is 5.55 µM (active); in the experiment with BJ [18], 2.8 µM (inconclusive); in experiment [20], 19.3 µM (active); in experiment [21] it was 8.66 µM (active); in the experiment with BJ [26], 0.582 µM (inconclusive); in [28], 8.49 µM (active). Besides, the results for the EC50 (in [29]; in experiment [30]; with BJ [31]) were 3.77 µM (active), > 120 µM (not active) and 2.62 µM (inconclusive), respectively. Further, the AC50 with INS1 is 5.79 µM (active); in [17], 11.8 µM (active); in [19], 4.5 µM (active); in experiment [22], 9.9 µM (active); in experiment [23], 1.89 µM (active); in experiment [24], 10.4 µM (active). For the same compound, the AC50 in experiment [25] is 6.68 µM (active); in experiment [27] it was 6.41 µM (active). Also, in experiment [16], the IC50 is 2.61 µM (active).
